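Five concentrations, 48 hours, 96-well plates. TGI: concentration producing complete growth inhibition.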
Columns and labels:
Test in all cases: growth of human tumour cells (NCI), 48 h
SF-295 CNS = test system: SF-295 CNS
SW-620 colon = test system: SW-620 colon
COLO 205 colon = test system: COLO 205 colon
SNB-75 CNS = test system: SNB-75 CNS
786-0 renal = test system: 786-0 renal
RXF 393 renal = test system: RXF 393 renal
SK-OV-3 ovarian = test system: SK-OV-3 ovarian
SF-268 CNS = test system: SF-268 CNS
SK-MEL-5 melanoma = test system: SK-MEL-5 melanoma
A498 renal = test system: A498 renal
MDA-N = test system: MDA-N

Row | Structure (SMILES) | TGI (SF-295 CNS) | TGI (SW-620 colon) | TGI (COLO 205 colon) | TGI (SNB-75 CNS) | TGI (786-0 renal) | TGI (RXF 393 renal) | TGI (SK-OV-3 ovarian) | TGI (SF-268 CNS) | TGI (SK-MEL-5 melanoma) | TGI (A498 renal) | TGI (MDA-N)
1 | CC(=O)Nc1c(C)cc2c(nc3n2CCC3OC(C)=O)c1[N+](=O)[O-] (configuration not stated) | > 100 µM | > 100 µM | > 100 µM | > 100 µM | > 100 µM | > 100 µM | > 100 µM | > 100 µM | > 100 µM | > 100 µM | > 100 µM
2 | Cn1c(=O)c2c(nc3n2CCCC(=O)N3CC(O)CCl)n(C)c1=O (configuration not stated) | > 100 µM | > 100 µM | > 100 µM | > 100 µM | > 100 µM | > 100 µM | > 100 µM | > 100 µM | > 100 µM | > 100 µM | > 100 µM
3 | CCOC(=O)C1=CCOc2cc(N(C)C)ccc21 | > 100 µM | > 100 µM | > 100 µM | > 100 µM | > 100 µM | > 100 µM | > 100 µM | > 100 µM | > 100 µM | > 100 µM | > 100 µM
4 | O=C1C2=C(CC3=C(C2)CS(=O)(=O)C3)C(=O)C2=C1CC1=C(C2)CS(=O)(=O)C1 | 44.9 µM | 47.1 µM | 35.7 µM | > 41 µM | 40.6 µM | 49.6 µM | > 73.2 µM | > 47.7 µM | 37.3 µM | > 90.9 µM | 20.8 µM
5 | O=C(CN1CCOCC1)c1ccc2c(c1)oc(=O)n2CCN1CCOCC1 | > 100 µM | > 100 µM | > 100 µM | > 100 µM | > 100 µM | > 100 µM | > 100 µM | > 100 µM | > 100 µM | > 100 µM | > 100 µM
6 | COc1ccccc1C1ON=C(c2ccc([N+](=O)[O-])cc2)N1C12CC3CC(CC(C3)C1)C2 (configuration not stated) | > 100 µM | > 100 µM | > 100 µM | > 100 µM | > 100 µM | 60.4 µM | > 100 µM | > 100 µM | > 100 µM | > 100 µM | > 100 µM
7 | [N-]=[N+]=NC(c1cn(C2CC(O)C(CO)O2)c(=O)[nH]c1=O)C(Cl)I (configuration not stated) | > 100 µM | > 100 µM | > 100 µM | > 100 µM | > 100 µM | > 100 µM | > 100 µM | > 100 µM | > 100 µM | > 100 µM | > 100 µM
